{
  "source": "patent US20240299553A1",
  "about": "“INDOCARBOCYANINE LIPID DERIVATIVES FOR IN VIVO CARGO DELIVERY” (priority 2021, published 2024)",
  "key": {"[1]": {"experiment": "Plasma fluorescence elimination profile after liposome injection", "assay_type": "in vivo, mice", "details": "24 h post-injection; DiI/Cy5-DSPE liposomes", "experimental": "(§1) 4T1 cell line was purchased from the ATCC and verified using a sequencing core. GL261 cells were obtained from the National Cancer Institute (NCI), and CT2A cells were a gift from Dr. Tom Seyfried (Boston College). LY2 cells were from Dr. Sana Karam, University of Colorado Anschutz Medical campus. Cells were grown at 37° C. in RPMI 1640 medium containing 10% heat-inactivated fetal bovine serum, 10 mM HEPES, 100 U/ml penicillin, and […] streptomycin (all from Corning Inc. New York, NY, USA). BALB/c mice were bred in-house. Mice of 8-10 weeks of age (females) were implanted with 0.5×10^6 cells into the mammary fat pad (4T1) or subcutaneously in the jaw region (LY2) and used for experiments 1 week later when tumors reached ˜200-300 mm^3. For brain tumors, C57BL/6 mice (6-8 weeks old) were implanted with a total 1×10^5 GL261 or CT-2A cells per animal using an established protocol. […]\nTumors and livers were placed in a 24-well plate and scanned as described above. […] Mean fluorescence was determined from 8-bit TIFF images using Fiji software by drawing a region of interest around the tumors and using the “Measure” function to determine mean gray values. […] For plasma fluorescence profile, plasma collected at different time points was serially diluted, dotted on a nitrocellulose membrane, scanned as above, and the mean fluorescence of dots was plotted versus time with Prism."}, "[2]": {"tested_on": "4T1 tumor cells and F4/80+ tumor-associated macrophages", "experiment": "Flow cytometry of 4T1 tumor single-cell suspension after i.v. labeled liposomes", "assay_type": "in vivo, mice", "details": "72 h after a single i.v. injection; liposomes labeled with 0.2% dye", "experimental": "as §1\nA single-cell suspension of tumor tissue was prepared for flow cytometry analysis, as previously described. […] After incubation on ice for 20 minutes and washing, cells were analyzed for staining using the Guava EasyCyte HT flow cytometer (Merck KGaA). Cells were resuspended at ˜0.5 million/ml, and 20,000 events were detected. Dead cells and fragments were excluded with FSC/SSC dot plot, and the percentage of Cy5+ cells was analyzed with FlowJo software Version 10.6 (FlowJo, LLC). […]"}, "[3]": {"experiment": "Incubation of liposomes in liver homogenates, fluorescence ratio and TLC", "assay_type": "in vitro ADME, BALB/c mice", "details": "24 h and 48 h incubation", "experimental": "Liposomes were incubated at 2 mM in 80% mouse serum, PBS or 1% Tween/PBS for different times at 37° C. Following incubation, the samples were dotted on a nitrocellulose membrane and scanned at Cy3 and Cy5 wavelengths. Alternatively, to measure the release in serum, the samples were diluted after incubation 10-fold in PBS and ultracentrifuged at 80,000 rpm for 30 min, 4° C. using TLA-100.3 rotor of Beckman Optima ultracentrifuge. The supernatant in serum, liposomes in whole serum, and liposomes in PBS were dotted and scanned at Cy3 and Cy5 wavelengths with a Bio-Rad camera imager using Cy3 and Cy5 filters. The mean fluorescence of the dots was determined and used to calculate the percentage of release in serum. To measure the effect of tissue on DiI/Cy5 fluorescence ratio, livers from BALB/c mice were homogenized for 5 min in PBS (1:2 weight: volume ratio) using BioSpec Mini BeadBeater-16 tissue homogenizer with 1-2 zirconium beads added per tube. […]\nFor extraction using a modified Bligh-Dyer method, 50-100 mg tissue was homogenized as described above, 10 parts of chloroform/methanol (2:1) were added to the homogenate (considering that tissue weight is 1 part), and the samples were mixed at 1400 rpm for 2 h at room temperature on Eppendorf Thermomixer. […] The percentage of the injected DiI and Cy5 in the extract was calculated from the standard curve and divided by tissue weight. […]"}, "[4]": {"experiment": "Lipid extraction of tumors and organs, dye biodistribution", "assay_type": "in vivo, mice", "details": "48 h post-injection", "experimental": "For extraction using a modified Bligh-Dyer method, 50-100 mg tissue was homogenized as described above, 10 parts of chloroform/methanol (2:1) were added to the homogenate (considering that tissue weight is 1 part), and the samples were mixed at 1400 rpm for 2 h at room temperature on Eppendorf Thermomixer. The tubes were centrifuged at 500 g for 10 min. The organic phase (bottom, approximately 80% of the added amount) was carefully collected, dotted on a PVDF membrane and scanned for DiI and Cy5 fluorescence as described above. Different dilutions of liposomes (standard curve) were scanned together with the samples. The percentage of the injected DiI and Cy5 in the extract was calculated from the standard curve and divided by tissue weight. The fluorescence of control non-injected organs was subtracted from that of injected organs. For TLC analysis, the mobile phase consisted of chloroform: methanol (9:1) with 1% trifluoroacetic acid and the samples were run on TLC Silica Gel 60 F254 plates (EMD Millipore)."}},
  "data": [
    {"smiles": "CCCCCCCCCCCCCCCCCC(=O)OC[C@H](COP(=O)(O)OCCNC(=O)CCCCCN1C(=CC=CC=CC2=[N+](C)c3ccccc3C2(C)C)C(C)(C)c2ccccc21)OC(=O)CCCCCCCCCCCCCCCCC", "note": "[Cy5-DSPE]", "values": [
      {"measurement": "dye cleared from the circulation", "setting": "[1]", "value": "approximately 80%"},
      {"measurement": "accumulation in cells in the tumor", "setting": "[2]", "value": "minimal accumulation"},
      {"measurement": "TLC of extracts of liver homogenates", "setting": "[3]", "value": "appearance of degradation products"},
      {"measurement": "tissues with the highest dye amount", "setting": "[4]", "value": "highest in the tumor and kidney"},
      {"measurement": "dye amount in tumor and organ extracts over time", "setting": "[4]; tumors, livers, spleens, kidneys, 1 h, 24 h", "value": "dropped over time in all the organs"}
    ]}
  ]
}
